Laboratory results from PubChem BioAssay AID1259411 (Chemical Carcinogenesis Research Information System (CCRIS), 2018).
Active and inactive are the calls of the source. The rule behind the calls is not given here.

Test system: rodent carcinogenicity bioassays, tumor incidence
Experiment: CCRIS carcinogenicity studies
Method in brief: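 Archive of carcinogenicity, mutagenicity, tumor promotion and tumor inhibition results drawn from journals, NCI reports and other sources, expert-reviewed; covers 1985-2011 and is no longer updated.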

Question: With CCC(C)(CC)c1cc(NC(=O)c2c(OC)cccc2OC)on1 as the compound, how does the carcinogen call (Species: Mouse, Strain/Sex: B6C3F1/Male (60/Group), Route: Oral, Dose: 0, 100, 1000, 12,500 ppm of 85% isoxaben (plus 10.5% closely related isomers) in diet for 2 yr, study duration 2 yr, Dose: 0, 100, 1000, 12,500 ppm of 85% isoxaben (plus 10.5% closely related isomers) in diet for 2 yr, study duration 2 yr, Tumor Site: Type of Lesion: Liver: Hepatocellular adenomas (increased incidence and multiplicity at 12,500 ppm)) read?
Answer: active; positive

Question: And the carcinogen call (Species: Rat, Strain/Sex: Fischer 344/Female (60/Group), Route: Oral, Dose: 0, 125, 1250, 12,500 ppm of 85% isoxaben (plus 10.5% closely related isomers) in diet for 2 yr, study duration 2 yr, Dose: 0, 125, 1250, 12,500 ppm of 85% isoxaben (plus 10.5% closely related isomers) in diet for 2 yr, study duration 2 yr)?
Answer: inactive; negative

Question: What about the carcinogen call (Species: Rat, Strain/Sex: Fischer 344/Male (60/Group), Route: Oral, Dose: 0, 125, 1250, 12,500 ppm of 85% isoxaben (plus 10.5% closely related isomers) in diet for 2 yr, study duration 2 yr, Dose: 0, 125, 1250, 12,500 ppm of 85% isoxaben (plus 10.5% closely related isomers) in diet for 2 yr, study duration 2 yr, Tumor Site: Type of Lesion: Adrenal gland: pheochromocytoma (highest dose)) of the same compound?
Answer: active; positive

Question: Which carcinogen call (Species: FISH, Strain/Sex: ORYZIAS LATIPES/FEMALE, Route: IMMERSION, Dose: 0, 0.018, 0.143, 1.424 MG/L AQUEOUS SOLUTION FOR 6 MO (STUDY DURATION: 6 MO), Dose: 0, 0.018, 0.143, 1.424 MG/L AQUEOUS SOLUTION FOR 6 MO (STUDY DURATION: 6 MO)) does the source give for ClC(Cl)Br here?
Answer: inactive; negative

Question: What about the carcinogen call (Species: FISH, Strain/Sex: ORYZIAS LATIPES/FEMALE, Route: IMMERSION, Dose: 0, 0.018, 0.143, 1.424 MG/L AQUEOUS SOLUTION FOR 9 MO (STUDY DURATION: 9 MO), Dose: 0, 0.018, 0.143, 1.424 MG/L AQUEOUS SOLUTION FOR 9 MO (STUDY DURATION: 9 MO)) of the same compound?
Answer: inactive; negative

Question: What about the carcinogen call (Species: FISH, Strain/Sex: ORYZIAS LATIPES/MALE, Route: IMMERSION, Dose: 0, 0.018, 0.143, 1.424 MG/L AQUEOUS SOLUTION FOR 6 MO (STUDY DURATION: 6 MO), Dose: 0, 0.018, 0.143, 1.424 MG/L AQUEOUS SOLUTION FOR 6 MO (STUDY DURATION: 6 MO)) of the same compound?
Answer: inactive; negative

Question: And the carcinogen call (Species: FISH, Strain/Sex: ORYZIAS LATIPES/MALE, Route: IMMERSION, Dose: 0, 0.018, 0.143, 1.424 MG/L AQUEOUS SOLUTION FOR 9 MO (STUDY DURATION: 9 MO), Dose: 0, 0.018, 0.143, 1.424 MG/L AQUEOUS SOLUTION FOR 9 MO (STUDY DURATION: 9 MO))?
Answer: inactive; negative

Question: What about the carcinogen call (Species: MOUSE, Strain/Sex: B6C3F1/FEMALE, Route: GAVAGE, Dose: 0, 75, 150 MG/KG IN CORN OIL 5D/WK FOR 102 WK (STUDY DURATION: 105 WK), Dose: 0, 75, 150 MG/KG IN CORN OIL 5D/WK FOR 102 WK (STUDY DURATION: 105 WK), Tumor Site: Type of Lesion: LIVER: HEPATOCELLULAR ADENOMA, LIVER: HEPATOCELLULAR CARCINOMA, LIVER: HEPATOCELLULAR ADENOMA OR CARCINOMA, Tumor Site: Type of Lesion: LIVER: HEPATOCELLULAR ADENOMA, LIVER: HEPATOCELLULAR CARCINOMA, LIVER: HEPATOCELLULAR ADENOMA OR CARCINOMA) of the same compound?
Answer: active; positive

Question: And the carcinogen call (Species: MOUSE, Strain/Sex: B6C3F1/MALE, Route: GAVAGE, Dose: 0, 25, 50 MG/KG IN CORN OIL 5D/WK FOR 102 WK (STUDY DURATION: 105 WK), Dose: 0, 25, 50 MG/KG IN CORN OIL 5D/WK FOR 102 WK (STUDY DURATION: 105 WK), Tumor Site: Type of Lesion: KIDNEY: TUBULAR CELL ADENOMA OR ADENOCARCINOMA)?
Answer: active; positive

Question: And the carcinogen call (Species: MOUSE, Strain/Sex: B6C3F1/MALE, Route: ORAL, Dose: 0, 8.1, 27.2, 43.4 MG/KG/D IN 0.25% EMULPHOR IN DRINKING WATER FOR 100 WK (STUDY DURATION: 100 WK), Dose: 0, 8.1, 27.2, 43.4 MG/KG/D IN 0.25% EMULPHOR IN DRINKING WATER FOR 100 WK (STUDY DURATION: 100 WK))?
Answer: inactive; negative

Question: What about the carcinogen call (Species: Mouse, Strain/Sex: B6C3F1/female, Route: Oral, Dose: 0, 175, 350, 700 mg/L (about 0, 9, 18, and 36 mg/kg, respectively) in drinking water for 104 wk, Dose: 0, 175, 350, 700 mg/L (about 0, 9, 18, and 36 mg/kg, respectively) in drinking water for 104 wk) of the same compound?
Answer: inactive; negative

Question: And the carcinogen call (Species: RAT, Strain/Sex: F344/FEMALE, Route: GAVAGE, Dose: 0, 50, 100 MG/KG IN CORN OIL 5D/WK FOR 102 WK (STUDY DURATION: 104 WK), Dose: 0, 50, 100 MG/KG IN CORN OIL 5D/WK FOR 102 WK (STUDY DURATION: 104 WK), Tumor Site: Type of Lesion: LARGE INTESTINE: ADENOMATOUS POLYP, LARGE INTESTINE: ADENOCARCINOMA, LARGE INTESTINE: ADENOMATOUS POLYP OR ADENOCARCINOM, Tumor Site: Type of Lesion: LARGE INTESTINE: ADENOMATOUS POLYP, LARGE INTESTINE: ADENOCARCINOMA, LARGE INTESTINE: ADENOMATOUS POLYP OR ADENOCARCINOM)?
Answer: active; positive

Question: And the carcinogen call (Species: RAT, Strain/Sex: F344/MALE, Route: GAVAGE, Dose: 0, 50, 100 MG/KG IN CORN OIL 5D/WK FOR 102 WK (STUDY DURATION: 104 WK), Dose: 0, 50, 100 MG/KG IN CORN OIL 5D/WK FOR 102 WK (STUDY DURATION: 104 WK), Tumor Site: Type of Lesion: LARGE INTESTINE: ADENOCARCINOMA, LARGE INTESTINE: ADENOMATOUS POLYP, LARGE INTESTINE: ADENOMATOUS POLYP OR ADENOCARCINOM, Tumor Site: Type of Lesion: LARGE INTESTINE: ADENOCARCINOMA, LARGE INTESTINE: ADENOMATOUS POLYP, LARGE INTESTINE: ADENOMATOUS POLYP OR ADENOCARCINOM)?
Answer: active; positive

Question: What about the carcinogen call (Species: RAT, Strain/Sex: F344/MALE, Route: ORAL, Dose: 0, 3.9, 20.6, 36.3 MG/KG/D IN 0.25% EMULPHOR IN DRINKING WATER FOR 100 WK (STUDY DURATION: 100 WK), Dose: 0, 3.9, 20.6, 36.3 MG/KG/D IN 0.25% EMULPHOR IN DRINKING WATER FOR 100 WK (STUDY DURATION: 100 WK), Tumor Site: Type of Lesion: LIVER: HEPATOCELLULAR ADENOMA, HEPATOCELLULAR ADENOMA OR HEPATOCELLULAR CARCINOMA) of the same compound?
Answer: active; positive

Question: What about the carcinogen call (Species: RAT, Strain/Sex: WISTAR/FEMALE, Route: ORAL, Dose: 0, 1.2 ML/L (15 MILLIMOLAR) IN DRINKING WATER FOR 72 WK THEN DOSE HALVED FOR DURATION OF STUDY (STUDY DURATION: LIFETIME, Tumor Site: Type of Lesion: LIVER: NEOPLASTIC NODULES, LYMPHOID TISSUE: LYMPHOSARCOMA) of the same compound?
Answer: active; positive

Question: And the carcinogen call (Species: RAT, Strain/Sex: WISTAR/MALE, Route: ORAL, Dose: 0, 1.2 ML/L (15 MILLIMOLAR) IN DRINKING WATER FOR 72 WK THEN DOSE HALVED FOR DURATION OF STUDY (STUDY DURATION: LIFETIME)?
Answer: inactive; negative

Question: And the carcinogen call (Species: Rat, Strain/Sex: F344/N/male, Route: Oral, Dose: 0, 175, 350, 700 mg/L (about 0, 6, 12, and 25 mg/kg, respectively) in drinking water for 104 wk, Dose: 0, 175, 350, 700 mg/L (about 0, 6, 12, and 25 mg/kg, respectively) in drinking water for 104 wk)?
Answer: inactive; negative

Question: Which results are given for COc1cc(OC)nc(Oc2cccc(Oc3nc(OC)cc(OC)n3)c2C(=O)O)n1?
Answer: carcinogen call (Species: Mouse, Strain/Sex: B6C3F1/Female (50/sex/dose), Route: Oral, Dose: 0, 10, 100, 2500, 5000 ppm in diet for 104 wk, Dose: 0, 10, 100, 2500, 5000 ppm in diet for 104 wk): inactive; negative; purity 98.4%; interim sacrifices of 10 additional animals/sex/dose at; carcinogen call (Species: Mouse, Strain/Sex: B6C3F1/Male (50/sex/dose), Route: Oral, Dose: 0, 10, 100, 2500, 5000 ppm in diet for 104 wk, Dose: 0, 10, 100, 2500, 5000 ppm in diet for 104 wk): inactive; negative; purity 98.4%; interim sacrifices of 10 additional animals/sex/dose at; carcinogen call (Species: Rat, Strain/Sex: F344/Female (48/sex/dose), Route: Oral, Dose: 0, 20, 200, 3000, 10000 ppm in diet for 104 wk, Dose: 0, 20, 200, 3000, 10000 ppm in diet for 104 wk): inactive; negative; purity 97.2%; interim sacrifices of 10 additional animals/sex/dose at; carcinogen call (Species: Rat, Strain/Sex: F344/Male (48/sex/dose), Route: Oral, Dose: 0, 20, 200, 3500, 7000 ppm in diet for 104 wk, Dose: 0, 20, 200, 3500, 7000 ppm in diet for 104 wk): inactive; negative; purity 97.2%; interim sacrifices of 10 additional animals/sex/dose at

Question: For O=C(OC[C@@H]1O[C@H](OC(=O)c2cc(O)c(O)c(OC(=O)c3cc(O)c(O)c(O)c3)c2)[C@@H](OC(=O)c2cc(O)c(O)c(OC(=O)c3cc(O)c(O)c(O)c3)c2)[C@H](OC(=O)c2cc(O)c(O)c(OC(=O)c3cc(O)c(O)c(O)c3)c2)[C@H]1OC(=O)c1cc(O)c(O)c(OC(=O)c2cc(O)c(O)c(O)c2)c1)c1cc(O)c(O)c(OC(=O)c2cc(O)c(O)c(O)c2)c1, which carcinogen call (Species: MOUSE, Route: SUBCUTANEOUS, Tumor Site: Type of Lesion: LIVER, INJECTION SITE) is on record?
Answer: active; positive

Question: What about the carcinogen call (Species: RAT, Route: SUBCUTANEOUS, Tumor Site: Type of Lesion: LIVER) of the same compound?
Answer: active; positive

Question: What about the carcinogen call (Species: RAT, Strain/Sex: F344/FEMALE, Route: ORAL, Dose: 0, 0.25, 0.5% IN DISTILLED WATER AS DRINKING WATER FOR 2 YR (STUDY DURATION: 114 WK), Dose: 0, 0.25, 0.5% IN DISTILLED WATER AS DRINKING WATER FOR 2 YR (STUDY DURATION: 114 WK)) of the same compound?
Answer: inactive; negative

Question: And the carcinogen call (Species: RAT, Strain/Sex: F344/MALE, Route: ORAL, Dose: 0, 0.25, 0.5% IN DISTILLED WATER AS DRINKING WATER FOR 2 YR (STUDY DURATION: 114 WK), Dose: 0, 0.25, 0.5% IN DISTILLED WATER AS DRINKING WATER FOR 2 YR (STUDY DURATION: 114 WK))?
Answer: inactive; negative
